Calls of active or inactive are those of the source. The rule behind the calls is not given here.
Legend:
Escherichia coli [1] = test: Inhibition of multidrug resistance efflux pump in wild-type Escherichia coli AB1157 assessed as concentration required to reduce piperacillin MIC by 4-fold by checkerboard assay
HeLa = test: Cytotoxicity against human HeLa cells; type: cell-based
Escherichia coli [2] = test: Antibacterial activity against Escherichia coli at 100 uM; type: functional, organism-based
Escherichia coli [3] = test: Inhibition of multidrug resistance efflux pump in Escherichia coli assessed as concentration required to reduce levofloxacin MIC by 4-fold by checkerboard assay

Row | Structure (SMILES) | INH (Escherichia coli [1]) | CC50 (HeLa) | Activity (Escherichia coli [2]) | INH (Escherichia coli [3])
1 | CC1(C)Cc2c(C#N)c(SCCc3ccccc3)nc(N3CCCC3)c2CO1 | > 100 µM | 20.2 µM | inactive | > 100 µM
2 | CC1(C)Cc2c(C#N)c(SCCC#N)nc(N3CCOCC3)c2CO1 | > 100 µM | > 100 µM | inactive | > 100 µM
3 | CC1(C)Cc2c(C#N)c(SCCc3ccccc3)nc(N3CCCOCC3)c2CO1 | 1.6 µM | > 100 µM | inactive | > 100 µM
4 | COCCN1CCN(c2nc(SCCc3ccncc3)c(C#N)c3c2COC(C)(C)C3)CC1 | 50 µM | 95.9 µM | inactive | 6.3 µM
5 | CC1(C)Cc2c(C#N)c(SCCc3ccccc3F)nc(N3CCOCC3)c2CO1 |  | > 100 µM | inactive | > 100 µM
6 | CN(C)c1nc(SCCc2ccccc2)c(C#N)c2c1COC(C)(C)C2 | 9.4 µM | 57.4 µM | inactive | > 100 µM
7 | CC1(C)Cc2c(C#N)c([S+]([O-])CCc3ccccc3)nc(N3CCOCC3)c2CO1 (stereo unspecified) | > 100 µM |  | inactive | > 100 µM
8 | N#Cc1c(SCCc2ccccc2)nc(N2CCOCC2)c2c1CCOC2 | > 100 µM |  | inactive | > 100 µM
9 | COc1ccc(CCSc2nc(N3CCOCC3)c3c(c2C#N)CC(C)(C)OC3)cc1 | 3.1 µM | > 100 µM | inactive | 6.3 µM
10 | CC1(C)Cc2c(C#N)c(SCCc3ccccc3)nc(N3CCSCC3)c2CO1 | 1.6 µM | > 100 µM | inactive | > 100 µM
11 | CC1(C)Cc2c(C#N)c(SCCc3c[nH]c4ccccc34)nc(N3CCOCC3)c2CO1 | 2.4 µM | 44.8 µM | inactive | 12.5 µM
12 | COc1ccccc1CCSc1nc(N2CCOCC2)c2c(c1C#N)CC(C)(C)OC2 | 3.1 µM | > 100 µM | inactive | 3.1 µM
13 | COCCN1CCN(c2nc(SCCc3cccc(F)c3)c(C#N)c3c2COC(C)(C)C3)CC1 | 6.3 µM | 37.9 µM | inactive | > 100 µM
14 | CC1CN(c2nc(SCCc3ccccc3)c(C#N)c3c2COC(C)(C)C3)CC(C)O1 (stereo unspecified) |  | > 100 µM | inactive | 
15 | CC1(C)Cc2c(C#N)c(SCCc3ccccc3)nc(N3CCCNCC3)c2CO1 | 12.5 µM | 20.3 µM | inactive | 12.5 µM
16 | CC1(C)Cc2c(C#N)c(SCCc3cccc(Cl)c3)nc(N3CCOCC3)c2CO1 | 3.1 µM | > 100 µM | inactive | 3.1 µM
17 | CC1(C)Cc2c(C#N)c(S(=O)(=O)CCc3ccccc3)nc(N3CCOCC3)c2CO1 | > 100 µM |  | inactive | > 100 µM
18 | CCN(CC)c1nc(SCCc2ccccc2)c(C#N)c2c1COC(C)(C)C2 | 6.3 µM | 38.2 µM | inactive | > 100 µM
19 | COCCN1CCN(c2nc(SCCc3cccc(OC)c3)c(C#N)c3c2COC(C)(C)C3)CC1 | 4.7 µM | 46.5 µM | inactive | 6.3 µM
20 | COCCN1CCN(c2nc(SCCc3cccc(Br)c3)c(C#N)c3c2COC(C)(C)C3)CC1 | 2.8 µM | 75.1 µM | inactive | 12.5 µM
21 | CC1CN(c2nc(SCCc3ccc(NC(=O)C(C)(C)C)cc3)c(C#N)c3c2COC(C)(C)C3)CC(C)O1 (stereo unspecified) | > 100 µM | > 100 µM | inactive | > 100 µM

Row | Structure (SMILES) | INH (Escherichia coli [1]) | CC50 (HeLa) | Activity (Escherichia coli [2]) | INH (Escherichia coli [3])
22 | CN1CCCN(c2nc(SCCc3ccccc3)c(C#N)c3c2COC(C)(C)C3)CC1 | 25 µM | 16.4 µM | inactive | 12.5 µM
23 | CC1(C)Cc2c(C#N)c(SCC(=O)c3ccccc3)nc(N3CCOCC3)c2CO1 | > 100 µM |  | inactive | > 100 µM
24 | CC1(C)Cc2c(C#N)c(SCCc3cccc(F)c3)nc(N3CCOCC3)c2CO1 | 4.7 µM | > 100 µM | inactive | > 100 µM
25 | CC1(C)Cc2c(C#N)c(SCCc3cccc(-c4nnn[nH]4)c3)nc(N3CCOCC3)c2CO1 | 12.5 µM | 20.7 µM | inactive | > 100 µM
26 | CC1(C)Cc2c(c(N3CCOCC3)nc(SCCc3ccccc3)c2C(N)=O)CO1 | > 100 µM |  | inactive | > 100 µM
27 | CC1(C)Cc2c(C#N)c(SCCc3ccccn3)nc(N3CCOCC3)c2CO1 | 25 µM | 78.1 µM | inactive | 50 µM
28 | CC1(C)Cc2c(C#N)c(SCCCc3ccccc3)nc(N3CCOCC3)c2CO1 | > 100 µM |  | inactive | > 100 µM
29 | CC1(C)Cc2c(C#N)c(SCCc3coc4ccccc34)nc(N3CCOCC3)c2CO1 | 6.3 µM | > 100 µM | inactive | > 100 µM
30 | CC1(C)Cc2c(C#N)c(SCC(O)c3ccccc3)nc(N3CCOCC3)c2CO1 (stereo unspecified) | > 100 µM |  | inactive | > 100 µM
31 | COCCN1CCN(c2nc(SCCc3ccccc3F)c(C#N)c3c2COC(C)(C)C3)CC1 | 9.4 µM | 30.6 µM | inactive | 12.5 µM
32 | N#Cc1c(SCCc2ccccn2)nc(N2CCOCC2)c2c1CCOC2 | > 100 µM |  | inactive | > 100 µM
33 | COc1cccc(CCSc2nc(N3CC(C)OC(C)C3)c3c(c2C#N)CC(C)(C)OC3)c1 (stereo unspecified) | 1.6 µM | > 100 µM | inactive | 9.4 µM
34 | CC1(C)Cc2c(C#N)c(SCCc3ccc(F)cc3)nc(N3CCOCC3)c2CO1 | 3.1 µM | 59 µM | inactive | 6.3 µM
35 | CC1CN(c2nc(SCCc3ccc(NS(C)(=O)=O)cc3)c(C#N)c3c2COC(C)(C)C3)CC(C)O1 (stereo unspecified) | 6.3 µM | 67 µM | inactive | 6.3 µM
36 | CC1(C)Cc2c(C#N)c(SCCc3nnn[nH]3)nc(N3CCOCC3)c2CO1 | > 100 µM | 30.2 µM | inactive | > 100 µM
37 | CC1(C)Cc2c(c(N3CCOCC3)nc(SCCc3ccccc3)c2C(=N)NO)CO1 | > 100 µM |  | inactive | > 100 µM
38 | CC1(C)Cc2c(C#N)c(SCCc3cccnc3)nc(N3CCOCC3)c2CO1 | 3.1 µM | > 100 µM | inactive | 25 µM
39 | COCCN1CCN(c2nc(SCCc3cccnc3)c(C#N)c3c2COC(C)(C)C3)CC1 | 25 µM | > 100 µM | inactive | > 100 µM
40 | CC(=O)Oc1cccc(CCSc2nc(N3CCOCC3)c3c(c2C#N)CC(C)(C)OC3)c1 | 1.6 µM | 48.3 µM | inactive | 1.6 µM
41 | COCCN1CCN(c2nc(SCCOc3ccccc3)c(C#N)c3c2COC(C)(C)C3)CC1 | 12.5 µM | 33.9 µM | inactive | > 100 µM
42 | CN1CCN(c2nc(SCCc3ccccc3)c(C#N)c3c2COC(C)(C)C3)CC1 | 6.3 µM | 14.4 µM | inactive | 6.3 µM

From ChEMBL document CHEMBL3399972, “Structure-activity relationships of a novel pyranopyridine series of Gram-negative bacterial efflux pump inhibitors” (Bioorg Med Chem, 2015)
